Literature values as cited in US20100047176A1, “Method and Kit for Testing Stress Effects in Living Organisms” (AARHUS UNIVERSITET, priority 2007, published 2010).
Converted amounts (≈) assume the structure as drawn.

Legend:
[1] = at 25° C.
[2] = test system: fish and aquatic invertebrates; details: if it reaches water bodies

Structure (SMILES)	water solubility [1]	toxicity to fish / aquatic invertebrates [2]
O=C(O)CNCP(=O)(O)O [Glyphosate]	11.6 mg/mL (≈ 68.6 mM)	
CCC(CC)Nc1c([N+](=O)[O-])cc(C)c(C)c1[N+](=O)[O-] [Pendimethalin]		toxic to fish
